Laboratory results as given in patent publication US10799595B2, “Pyrrolobenzodiazepine conjugates” (priority 2016, dated 2020).

Columns and labels:
human tumour cell lines = settings: cited from earlier work; for activity against a range of human tumour cell lines: quoted from REF 2014 impact study
[1] = system: human tumour xenograft models; settings: quoted from REF 2014 impact study; cited from earlier work
DU145 = assay: In vitro testing of compound 10, CellTiter-Glo viability, +/- β-glucuronidase, 72 hour assay; assay type: cell-based; settings: Homo sapiens, DU-145, 72 h
Description: DU145 (2000/well, 72 hour assay) and MDA-MB-361 (5000/well, 144 hour assay) cells were plated in culture medium to tissue culture-treated 96-well plates at a volume of 80 μL per well and allowed to adhere overnight. For warhead dilutions, first a 60× concentration of each dose to be tested was prepared by diluting the test articles in DMSO. The 60× dilutions of warhead were then further diluted to a 5× concentration in either cell culture medium alone or cell culture medium containing 5× β-glucuronidase enzyme (Sigma Cat # G0799-25KU). […] DMSO alone diluted to the culture medium was used as the controls. The treated cells were cultured at 37° C./5% CO2 for 72 to 144 hours (depending on established growth kinetics of each particular cell line). At the end of the assay, CellTiter-Glo® (CTG) Luminescent Viability Assay (Promega) was used to determine relative cytotoxicity. 100 μL of CTG reagent was added to each well, and plates were incubated for 10 minutes at room temperature with gentle shaking, absorbance of each sample was read at 560 nm using an EnVision luminometer (Perkin Elmer). The percent cell viability was calculated by the following formula: (average luminescence of treated samples/average luminescence of control samples)×100.
(§1) IC50 values were determined using logistic non-linear regression analysis with GraphPad Prism software.

MDA-MB-361 = assay: In vitro testing of compound 10, CellTiter-Glo viability, +/- β-glucuronidase, 144 hour assay; assay type: cell-based; settings: Homo sapiens, MDA-MB-361, 144 h
Description: DU145 (2000/well, 72 hour assay) and MDA-MB-361 (5000/well, 144 hour assay) cells were plated in culture medium to tissue culture-treated 96-well plates at a volume of 80 μL per well and allowed to adhere overnight. For warhead dilutions, first a 60× concentration of each dose to be tested was prepared by diluting the test articles in DMSO. The 60× dilutions of warhead were then further diluted to a 5× concentration in either cell culture medium alone or cell culture medium containing 5× β-glucuronidase enzyme (Sigma Cat # G0799-25KU). 20 μL of cell culture medium containing test article+/−enzyme was added to cells in triplicate wells, and the final dose curve ranged from 6.4 nM to 61 pM in a stepwise 1:4 serial dilution series. DMSO alone diluted to the culture medium was used as the controls. […] 100 μL of CTG reagent was added to each well, and plates were incubated for 10 minutes at room temperature with gentle shaking, absorbance of each sample was read at 560 nm using an EnVision luminometer (Perkin Elmer). The percent cell viability was calculated by the following formula: (average luminescence of treated samples/average luminescence of control samples)×100.
as §1

## C=C1C[C@H]2C=Nc3cc(OCCCCCOc4cc5c(cc4OC)C(=O)N4CC(=C)C[C@H]4C=N5)c(OC)cc3C(=O)N2C1 [SG2057]
Human tumour cell lines
  activity against a range of human tumour cell lines: picomolar/sub-picomolar activity
[1]
  activity in human tumour xenograft models: curative activity

## COc1ccc(C2=CN3C(=O)c4cc(OC)c(OCCCOc5cc6c(cc5OC)C(=O)N5C=C(c7ccc(OC)cc7)C[C@H]5C=N6)cc4N=C[C@@H]3C2)cc1 [SG2202]
Human tumour cell lines
  activity against a range of human tumour cell lines: picomolar/sub-picomolar activity
[1]
  activity in human tumour xenograft models: curative activity

## C=C1C[C@H]2[C@H](O)N(C(=O)OCc3ccc(NC(=O)[C@H](C)NC(=O)[C@@H](NC(=O)CCOCCOCCOCCOCCOCCOCCOCCOCCNC(=O)CCN4C(=O)C=CC4=O)C(C)C)cc3)c3cc(OCCCOc4cc5c(cc4OC)C(=O)N4CC(=C)C[C@H]4[C@H](O)N5C(=O)OCc4ccc(O[C@@H]5O[C@H](C(=O)O)[C@@H](O)[C@H](O)[C@H]5O)c([N+](=O)[O-])c4)c(OC)cc3C(=O)N2C1 [Compound 10]
DU145; No glucuronidase
  IC50: 6840 nM
DU145; With glucuronidase
  IC50: 201 nM
MDA-MB-361; No glucuronidase
  IC50: 778 nM
MDA-MB-361; With glucuronidase
  IC50: 32 nM

## C=C1C[C@H]2C=Nc3cc(OCCCOc4cc5c(cc4OC)C(=O)N4CC(=C)C[C@H]4C=N5)c(OC)cc3C(=O)N2C1 [SG2000]
Human tumour cell lines; see Hartley et al 2012
  times less cytotoxic than SG2057: at least 10 times
